SMILES strings stand for the structures.

T1 sequence (P53350 whole entry): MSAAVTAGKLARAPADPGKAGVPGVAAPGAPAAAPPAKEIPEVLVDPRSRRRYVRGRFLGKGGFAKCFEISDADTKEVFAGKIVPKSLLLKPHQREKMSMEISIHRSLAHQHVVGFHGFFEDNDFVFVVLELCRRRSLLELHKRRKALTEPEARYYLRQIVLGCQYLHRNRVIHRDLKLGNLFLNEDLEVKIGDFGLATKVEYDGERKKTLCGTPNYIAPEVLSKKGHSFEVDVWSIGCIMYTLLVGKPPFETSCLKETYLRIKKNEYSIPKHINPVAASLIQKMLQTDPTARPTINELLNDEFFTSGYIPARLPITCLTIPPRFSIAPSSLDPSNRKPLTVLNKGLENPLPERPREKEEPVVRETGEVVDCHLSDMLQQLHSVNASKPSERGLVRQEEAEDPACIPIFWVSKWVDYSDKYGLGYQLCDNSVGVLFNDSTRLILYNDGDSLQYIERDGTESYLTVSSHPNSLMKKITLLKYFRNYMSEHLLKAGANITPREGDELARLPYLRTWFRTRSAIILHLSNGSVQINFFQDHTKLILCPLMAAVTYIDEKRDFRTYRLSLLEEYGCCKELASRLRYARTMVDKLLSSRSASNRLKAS

The first assay has as its target T1, GST-Plk1 (Homo sapiens, UniProt P53350).
T1 construct: Full-length, active GST-Plk1 was purified from Sf9 insect cells; made in house; host or cells: Sf9 insect cells
Kind of assay: Biochemical Characterization Assay A (HTRF, phosphorylation of GST-p53). The following applies: full-length GST-Plk1, GST-p53 substrate, HTRF signal. How it is done:
Full-length, active GST-Plk1 was purified from Sf9 insect cells, and full-length GST-p53 was purified in E. coli. Anti-phospho p53 antibody was purchased from Cell Signaling Technology. Europium-conjugated anti-rabbit antibody was purchased from PerkinElmer Life and Analytical Sciences. APC-conjugated anti-GST antibody was purchased from Prozyme.
To two microliters of compound (0.6 nM-4 mM) in DMSO or plain DMSO for control wells, 38 microliters of 20 mM HEPES pH 7, 50 mM NaCl, 10 mM MgCl2, 0.5 mM TCEP, 0.1 mM sodium orthovanadate, 0.1 mg/ml BSA, and 0.05% Triton X-100 (Kinase Assay Buffer) were added. Eight microliters of the compound solution were added to a 384-well black microtiter plate, followed by six microliters of GST-p53 (17 ug/ml) and ATP (333 uM) in Kinase Assay Buffer. Six microliters of GST-Plk1 (3 ug/ml) in Kinase Assay Buffer were then added and the solution incubated at 37° C. for 35 minutes. Six microliters of solution containing 43 mM EDTA to stop the reaction and a 1:600 dilution of anti-phospho-p53 antibody in 20 mM HEPES pH 7, 50 mM NaCl, and 0.5 mg/ml BSA (Antibody Binding Buffer) were added and the solution incubated at 37° C. for 30 minutes. Six microliters of solution containing 9 nM europium-conjugated anti-rabbit antibody and 120 nM APC-conjugated anti-GST antibody in Antibody Binding Buffer were then added and the mixture incubated at room temperature for 1.5 hours. The HTRF signal was read on the Envision reader (PerkinElmer Life and Analytical Sciences).
(§1) The IC50 values for each compound were generated using an Excel template. The % conversion readings of Total and Blank were used as 0% and 100% inhibition. The percent inhibition values of reactions in the presence of compounds were calculated, and plotted against compound concentrations. All data were fitted into a Dose Response One Site model (4 parameter logistic model) as the following: (A+4B−A)/(1+((x/C)^13)))), with A and B as the bottom and top of the curve (highest and lowest inhibition), respectively, and C as IC50 and D as Hill Coefficient of the compound.
In turn, `COc1cc2ncn(-c3nc(-c4cccc(Cl)c4)c(C(N)=O)s3)c2cc1OCCCN1CCN(C)CC1` [Example 42, 4-(3-Chloro-phenyl)-2-{5-methoxy-6-[3-(4-methyl-piperazin-1-yl)-propoxy]-benzoimidazol-1-yl}-thiazole-5-carboxylic acid amide] had an IC50 of 19 nM.

`CN1CCN(CCCOc2ccc3ncn(-c4nc(-c5cccc(Cl)c5)c(C(N)=O)s4)c3c2)CC1` [Example 33, 4-(3-Chloro-phenyl)-2-{6-[3-(4-methyl-piperazin-1-yl)-propoxy]-benzoimidazol-1-yl}-thiazole-5-carboxylic acid amide] yielded an IC50 of 32 nM.

In turn, `NC(=O)c1sc(-n2cnc3ccc(CN4CCOCC4)cc32)nc1-c1cccc(Cl)c1` [Example 4, 4-(3-Chloro-phenyl)-2-(6-morpholin-4-ylmethyl-benzoimidazol-1-yl)-thiazole-5-carboxylic acid amide] yielded an IC50 of 306 nM. Against the preceding molecule, the IC50 is about 9.6-fold higher.

As for `CN1CCN(Cc2ccc3c(c2)ncn3-c2nc(-c3cccc(Cl)c3)c(C(N)=O)s2)CC1` [Example 3, 4-(3-Chloro-phenyl)-2-[5-(4-methyl-piperazin-1-ylmethyl)-benzoimidazol-1-yl]-thiazole-5-carboxylic acid amide], the 50% inhibitory concentration (IC50) is 1100 nM. This IC50 is about 3.6-fold higher than that of the molecule before.

For `CN1CCN(C(=O)c2ccc3ncn(-c4nc(-c5cccc(Cl)c5)c(C(N)=O)s4)c3c2)CC1` [Example 11, 4-(3-Chloro-phenyl)-2-[6-(4-methyl-piperazine-1-carbonyl)-benzoimidazol-1-yl]-thiazole-5-carboxylic acid amide], 215 nM corresponded to half-maximal inhibition (IC50).

Molecule `NC(=O)c1sc(-n2cnc3ccc(OC4CCCCC4)cc32)nc1-c1cccc(Cl)c1` [Example 25, 4-(3-Chloro-phenyl)-2-(6-cyclohexyloxy-benzoimidazol-1-yl)-thiazole-5-carboxylic acid amide] yielded an IC50 of 660 nM.

As for `NC(=O)c1sc(-n2cnc3ccc(CN4CCN(CCO)CC4)cc32)nc1-c1cccc(Cl)c1` [Example 5, 4-(3-Chloro-phenyl)-2-{6-[4-(2-hydroxy-ethyl)-piperazin-1-ylmethyl]-benzoimidazol-1-yl}-thiazole-5-carboxylic acid amide], the IC50 was found to be 91 nM. Compared with the last molecule, the IC50 is about 7.3-fold lower.

`NC(=O)c1sc(-n2cnc3ccc(OC4CCNCC4)cc32)nc1-c1cccc(Cl)c1` [Example 21, 4-(3-Chloro-phenyl)-2-[6-(piperidin-4-yloxy)-benzoimidazol-1-yl]-thiazole-5-carboxylic acid amide] yielded an IC50 of 80 nM.

The molecule `CN1CCN(Cc2ccc3ncn(-c4nc(-c5cccc(C(F)(F)F)c5)c(C(N)=O)s4)c3c2)CC1` [Example 48, 2-[6-(4-Methyl-piperazin-1-ylmethyl)-benzoimidazol-1-yl]-4-(3-trifluoromethyl-phenyl)-thiazole-5-carboxylic acid amide] gave an IC50 of 59 nM.

In turn, `CN1CCN(Cc2ccc3ncn(-c4nc(-c5ccccc5Cl)c(C(N)=O)s4)c3c2)CC1` [Example 20, 4-(2-Chloro-phenyl)-2-[6-(4-methyl-piperazin-1-ylmethyl)-benzoimidazol-1-yl]-thiazole-5-carboxylic acid amide] returned an IC50 of 346 nM.

The molecule `CN1CCN(Cc2ccc3c(c2)ncn3-c2nc(-c3ccc(Cl)cc3)c(C(N)=O)s2)CC1` [Example 18, 4-(4-Chloro-phenyl)-2-[5-(4-methyl-piperazin-1-ylmethyl)-benzoimidazol-1-yl]thiazole-5-carboxylic acid amide] gave an IC50 of more than 80000 nM.

Consider `CN1CCC(NC(=O)c2ccc3ncn(-c4nc(-c5cccc(Cl)c5)c(C(N)=O)s4)c3c2)CC1` [Example 10, 3-[5-Carbamoyl-4-(3-chloro-phenyl)-thiazol-2-yl]-3H-benzoimidazole-5-carboxylic acid (1-methyl-piperidin-4-yl)-amide], for which the IC50 amounted to 2020 nM. This lies in the single-digit micromolar range.

The molecule `NC(=O)c1sc(-n2cnc3ccc(OCCN4CCOCC4)cc32)nc1-c1cccc(Cl)c1` [Example 26, 4-(3-Chloro-phenyl)-2-[6-(2-morpholin-4-yl-ethoxy)-benzoimidazol-1-yl]-thiazole-5-carboxylic acid amide] registered an IC50 of 166 nM.

Regarding `CN1CCN(Cc2ccc3ncn(-c4nc(-c5ccc(Cl)cc5)c(C(N)=O)s4)c3c2)CC1` [Example 19, 4-(4-Chloro-phenyl)-2-[6-(4-methyl-piperazin-1-ylmethyl)-benzoimidazol-1-yl]-thiazole-5-carboxylic acid amide], half-maximal inhibition (IC50) was put at 499 nM.

Molecule `NC(=O)c1sc(-n2cnc3ccc(OCCCN4CCOCC4)cc32)nc1-c1cccc(Cl)c1` [Example 30, 4-(3-Chloro-phenyl)-2-[6-(3-morpholin-4-yl-propoxy)-benzoimidazol-1-yl]-thiazole-5-carboxylic acid amide] displayed an IC50 of 21 nM. Compared with the last molecule, the IC50 is about 24-fold lower.

The molecule `NC(=O)c1sc(-n2cnc3ccc(CN4CCCCC4)cc32)nc1-c1cccc(Cl)c1` [Example 8, 4-(3-Chloro-phenyl)-2-(6-piperidin-1-ylmethyl-benzoimidazol-1-yl)-thiazole-5-carboxylic acid amide] came in with a concentration for half-maximal inhibition (IC50) of 3440 nM.

As for `CN1CCN(Cc2ccc3ncn(-c4nc(-c5ccccc5)c(C(N)=O)s4)c3c2)CC1` [Example 1, 2-[6-(4-Methyl-piperazin-1-ylmethyl)-benzoimidazol-1-yl]-4-phenyl-thiazole-5-carboxylic acid amide], half-maximal inhibition (IC50) was put at 167 nM.

Regarding `CN1CCN(Cc2ccc3ncn(-c4nc(-c5ccccc5C(F)(F)F)c(C(N)=O)s4)c3c2)CC1` [Example 17, 2-[6-(4-Methyl-piperazin-1-ylmethyl)-benzoimidazol-1-yl]-4-(2-trifluoromethyl-phenyl)-thiazole-5-carboxylic acid amide], the IC50 turned out to be 1140 nM.

As for `CN1CCN(CCc2ccc3ncn(-c4nc(-c5cccc(Cl)c5)c(C(N)=O)s4)c3c2)CC1` [Example 9, 4-(3-Chloro-phenyl)-2-{6-[2-(4-methyl-piperazin-1-yl)-ethyl]-benzoimidazol-1-yl}-thiazole-5-carboxylic acid amide], the midpoint of inhibition, the IC50, lay at 109 nM. This IC50 lies about 10-fold lower than the previous one.

`CN1CCN(Cc2ccc3ncn(-c4nc(-c5ccc(C(F)(F)F)cc5)c(C(N)=O)s4)c3c2)CC1` [Example 47, 2-[6-(4-Methyl-piperazin-1-ylmethyl)-benzoimidazol-1-yl]-4-(4-trifluoromethyl-phenyl)-thiazole-5-carboxylic acid amide] displayed an IC50 of 661 nM.

Molecule `CN1CCN(Cc2ccc3ncn(-c4nc(-c5cccc(Cl)c5)c(C(N)=O)s4)c3c2)CC1` [Example 2, 4-(3-Chloro-phenyl)-2-[6-(4-methyl-piperazin-1-ylmethyl)-benzoimidazol-1-yl]-thiazole-5-carboxylic acid amide] registered an IC50 of 13 nM.

For `CN(C)CCCOc1ccc2ncn(-c3nc(-c4cccc(Cl)c4)c(C(N)=O)s3)c2c1` [Example 31, 4-(3-Chloro-phenyl)-2-[6-(3-dimethylamino-propoxy)-benzoimidazol-1-yl]-thiazole-5-carboxylic acid amide], half-maximal inhibition (IC50) required 161 nM.

`CN1CCC(NCc2ccc3ncn(-c4nc(-c5cccc(Cl)c5)c(C(N)=O)s4)c3c2)CC1` [Example 7, 4-(3-Chloro-phenyl)-2-{6-[(1-methyl-piperidin-4-ylamino)-methyl]-benzoimidazol-1-yl}-thiazole-5-carboxylic acid amide] registered a half-inhibitory concentration (IC50) of 443 nM.

For another assay, the target named is T2, PLK1 (Homo sapiens, UniProt P53350).
T2 construct: Full-length, active GST-Plk1 was purified from Sf9 insect cells; GST (N); made in house; host or cells: Sf9 insect cells
T2 sequence (P53350 whole entry): as above
The assay is described as follows: Biochemical Characterization Assay B (peptide substrate, LABCHIP EZ Reader II). The following applies: PLK1, peptide RRRAGALMDASFEEQ-CONH2, % conversion on LABCHIP EZ Reader II. How it is done:
Compounds were serially diluted to 6400, 2133, 711, 237, 79, 26, 8.78, 2.93, 0.98 and 0.33 μM in 100% DMSO. Diluted compound was further diluted 20 fold with Kinase Assay Buffer (KAB). Peptide RRRAGALMDASFEEQ-CONH2 (MW 2090) was diluted to 1.2 μM with KAB and ATP was added to 400 μM. PLK1 stock, prepared as described above, was diluted to 3 μg protein/mL with KAB right before it was added to MATRIX 384-Well Polypropylene Black Plates to start the reaction. 20 μL of KAB diluted compounds (or 5% DMSO in KAB for Total and Blank), 20 μL of KAB diluted peptide with ATP and 40 μL of KAB diluted PLK1 solution (KAB without PLK 1 for Blanks) were transferred to each well of the polypropylene plates. The reaction mixtures were incubated at room temperature for 40 minutes. Reactions were stopped by addition of 10 uL Reaction Stopping Buffer (RSB) to each well. Plates were then read on LABCHIP EZ Reader II from Caliper Life Science.
as §1
With `COc1cc2ncn(-c3nc(-c4cccc(Cl)c4)c(C(N)=O)s3)c2cc1OCCCN1CCN(C)CC1` [Example 42, 4-(3-Chloro-phenyl)-2-{5-methoxy-6-[3-(4-methyl-piperazin-1-yl)-propoxy]-benzoimidazol-1-yl}-thiazole-5-carboxylic acid amide], the concentration for half-maximal inhibition (IC50) is 60 nM.
